Assay results published in ChEMBL document CHEMBL4251574, “Design, synthesis, and biological evaluation of new 1,2,3-triazolo-2'-deoxy-2'-fluoro- 4'-azido nucleoside derivatives as potent anti-HBV agents” (Eur J Med Chem, 2018).

Columns and labels:
Assay type in all cases: functional
Hepatitis B virus [1] = test: Antiviral activity against Hepatitis B virus infected in human HepG2.2.15 cells assessed as inhibition of HBeAg secretion at 5 uM after 9 days by ELISA relative to control; details: HepG2.2.15, 216 h
HepG2 2.2.15 = test: Cytotoxicity against human HepG2.2.15 cells after 9 days by MTT assay; details: HepG2 2.2.15, 216 h
Hepatitis B virus [2] = test: Antiviral activity against Hepatitis B virus infected in human HepG2.2.15 cells assessed as inhibition of HBsAg secretion at 5 uM after 9 days by ELISA relative to control; details: HepG2.2.15, 216 h

[N-]=[N+]=N[C@]1(CO)O[C@@H](n2cc(C3CC3)nn2)[C@@H](F)[C@@H]1O
inhibition at 5 µM (Hepatitis B virus [1]): 26.2% | CC50 (HepG2 2.2.15): > 1000 µM | inhibition at 5 µM (Hepatitis B virus [2]): 28.9%

COC(=N)c1cn([C@@H]2O[C@@](CO)(N=[N+]=[N-])[C@@H](O)[C@@H]2F)nn1
inhibition at 5 µM (Hepatitis B virus [1]): 11.4% | CC50 (HepG2 2.2.15): 101 µM | inhibition at 5 µM (Hepatitis B virus [2]): 17.7%

[N-]=[N+]=N[C@]1(CO)O[C@@H](n2cc(-c3nnn[nH]3)nn2)[C@@H](F)[C@@H]1O
inhibition at 5 µM (Hepatitis B virus [1]): 20% | CC50 (HepG2 2.2.15): > 1000 µM | inhibition at 5 µM (Hepatitis B virus [2]): 40%

CNC(=N)c1cn([C@@H]2O[C@@](CO)(N=[N+]=[N-])[C@@H](O)[C@@H]2F)nn1
inhibition at 5 µM (Hepatitis B virus [1]): 13.8% | CC50 (HepG2 2.2.15): > 1000 µM | inhibition at 5 µM (Hepatitis B virus [2]): 22.2%
